{"source": "patent US10888547B2", "about": "“Amorphous and a crystalline form of genz 112638 hemitartrate as inhibitor of glucosylceramide synthase” (Genzyme Corporation, priority 2009, dated 2021)", "key": {"GM1 in K562 cells": {"tested_on": "GM1 in K562 cells", "test": "Flow cytometry of cell surface GM1 in intact cells", "assay_type": "cell-based", "settings": "for IC50: Homo sapiens", "excerpt": "(§1) Since […] the first and rate-limiting step in the biosynthesis of glycosphingolipids, a flow cytometry assay that measured cell surface levels of GM 1 and GM3 was used to indirectly assess the activity of the inhibitor in intact cells."}, "[1]": {"target": "glycogen debranching enzyme (α-1,6-glucosidase) (Homo sapiens, UniProt P35573)", "sequence (P35573 whole entry, species assumed)": "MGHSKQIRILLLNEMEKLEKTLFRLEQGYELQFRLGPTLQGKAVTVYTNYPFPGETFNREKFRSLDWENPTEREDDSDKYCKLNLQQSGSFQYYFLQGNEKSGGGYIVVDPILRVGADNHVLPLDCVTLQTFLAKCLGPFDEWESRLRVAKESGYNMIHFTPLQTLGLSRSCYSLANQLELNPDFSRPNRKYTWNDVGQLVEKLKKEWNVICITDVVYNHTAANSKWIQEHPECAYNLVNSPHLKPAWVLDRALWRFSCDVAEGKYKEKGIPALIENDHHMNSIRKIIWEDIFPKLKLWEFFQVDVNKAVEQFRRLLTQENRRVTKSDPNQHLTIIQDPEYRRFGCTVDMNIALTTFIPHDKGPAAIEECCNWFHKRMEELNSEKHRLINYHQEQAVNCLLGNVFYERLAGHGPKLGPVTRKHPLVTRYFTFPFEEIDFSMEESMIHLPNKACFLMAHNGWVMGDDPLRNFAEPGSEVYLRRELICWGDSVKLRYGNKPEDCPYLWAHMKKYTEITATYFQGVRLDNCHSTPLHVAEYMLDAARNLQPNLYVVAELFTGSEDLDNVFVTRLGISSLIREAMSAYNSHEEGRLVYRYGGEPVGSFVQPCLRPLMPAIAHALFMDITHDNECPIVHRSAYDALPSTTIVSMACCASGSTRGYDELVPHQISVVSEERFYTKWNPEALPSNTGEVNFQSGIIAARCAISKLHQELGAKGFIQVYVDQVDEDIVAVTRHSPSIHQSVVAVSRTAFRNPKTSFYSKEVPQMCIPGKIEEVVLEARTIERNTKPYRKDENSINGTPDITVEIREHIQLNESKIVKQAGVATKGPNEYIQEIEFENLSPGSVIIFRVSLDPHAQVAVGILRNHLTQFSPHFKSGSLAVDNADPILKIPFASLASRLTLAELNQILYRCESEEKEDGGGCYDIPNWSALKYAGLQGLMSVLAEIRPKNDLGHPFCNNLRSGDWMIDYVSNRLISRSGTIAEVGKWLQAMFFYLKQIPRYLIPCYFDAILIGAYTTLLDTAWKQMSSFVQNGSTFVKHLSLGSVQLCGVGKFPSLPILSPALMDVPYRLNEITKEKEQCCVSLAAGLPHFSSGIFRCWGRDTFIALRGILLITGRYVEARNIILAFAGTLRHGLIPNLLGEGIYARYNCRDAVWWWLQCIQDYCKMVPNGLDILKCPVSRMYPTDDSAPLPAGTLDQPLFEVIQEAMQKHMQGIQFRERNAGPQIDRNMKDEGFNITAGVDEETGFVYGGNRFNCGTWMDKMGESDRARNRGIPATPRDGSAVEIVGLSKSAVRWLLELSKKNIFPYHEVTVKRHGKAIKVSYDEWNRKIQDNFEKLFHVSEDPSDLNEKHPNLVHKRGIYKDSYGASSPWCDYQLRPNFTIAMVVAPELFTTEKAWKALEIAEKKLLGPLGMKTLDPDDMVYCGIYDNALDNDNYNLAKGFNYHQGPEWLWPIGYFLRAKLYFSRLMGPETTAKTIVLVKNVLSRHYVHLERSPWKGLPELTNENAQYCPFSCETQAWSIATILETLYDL", "test": "Glycogen debranching enzyme cell free assay", "assay_type": "biochemical", "procedure": "(§2) The specificity of Formula (I) Hemitartrate was evaluated in a series of in vitro cell-based and cell-free assays. The intestinal glycosidase enzymes were assayed in rat tissue homogenates (see U. Andersson, et al., Biochem. Pharm. 59 (2000) 821-829, the entire teachings of which are incorporated herein by reference), and the glycogen debranching enzyme was assayed in a cell free assay as described (see U. Andersson, et al., Biochem. Pharm. 67 (2004) 697-705, the entire teachings of which are incorporated herein by reference)."}, "α-glucosidase I and II": {"tested_on": "α-glucosidase I and II", "test": "α-Glucosidase I and II specificity assay", "assay_type": "biochemical"}, "[2]": {"test": "Hygroscopicity of salts and free base", "assay_type": "physicochemical"}, "Aqueous solubility": {"test": "Aqueous solubility", "assay_type": "physicochemical", "settings": "in water"}, "[3]": {"settings": "both, human, in vivo", "excerpt": "This was an open-label, fixed-sequence study in 36 healthy subjects (17 males and 19 females)."}, "GM3 in B16/F10 cells": {"tested_on": "GM3 in B16/F10 cells", "test": "Flow cytometry of cell surface GM3 in intact cells", "assay_type": "cell-based", "excerpt": "as §1"}, "D409V/null mice": {"tested_on": "D409V/null mice", "test": "Oral gavage efficacy study in Gaucher D409V/null mice", "assay_type": "in vivo, mouse"}, "[4]": {"test": "Approximate solubility in organic solvents from solvent addition", "assay_type": "physicochemical", "settings": "organic solvent or mixture, thermodynamic from solid, room temperature (20-25° C.)", "procedure": "A weighed sample (usually 20 mg) was treated with aliquots of the test solvent. Aliquots were typically 100-200 μL. Between solvent additions, the mixture was shaken or sonicated. When the solids dissolved, as judged by visual inspection, the solution was allowed to evaporate under ambient conditions in an open vial covered with aluminum foil perforated with pinholes. Solubilities were estimated from these experiments based on the total solvent added to obtain a clear solution."}, "sucrase": {"target": "T1, sucrase (Rattus norvegicus, UniProt P23739)", "T1 construct": "The intestinal glycosidase enzymes were assayed in rat tissue homogenates; from tissue; host or cells: rat intestinal tissue homogenate", "test": "Intestinal glycosidase assay in rat tissue homogenates", "assay_type": "biochemical", "procedure": "as §2"}, "lactase": {"target": "T2, lactase (Rattus norvegicus, UniProt Q02401)", "T2 construct": "The intestinal glycosidase enzymes were assayed in rat tissue homogenates; from tissue; host or cells: rat intestinal tissue homogenate", "T2 sequence (Q02401 868-1928)": "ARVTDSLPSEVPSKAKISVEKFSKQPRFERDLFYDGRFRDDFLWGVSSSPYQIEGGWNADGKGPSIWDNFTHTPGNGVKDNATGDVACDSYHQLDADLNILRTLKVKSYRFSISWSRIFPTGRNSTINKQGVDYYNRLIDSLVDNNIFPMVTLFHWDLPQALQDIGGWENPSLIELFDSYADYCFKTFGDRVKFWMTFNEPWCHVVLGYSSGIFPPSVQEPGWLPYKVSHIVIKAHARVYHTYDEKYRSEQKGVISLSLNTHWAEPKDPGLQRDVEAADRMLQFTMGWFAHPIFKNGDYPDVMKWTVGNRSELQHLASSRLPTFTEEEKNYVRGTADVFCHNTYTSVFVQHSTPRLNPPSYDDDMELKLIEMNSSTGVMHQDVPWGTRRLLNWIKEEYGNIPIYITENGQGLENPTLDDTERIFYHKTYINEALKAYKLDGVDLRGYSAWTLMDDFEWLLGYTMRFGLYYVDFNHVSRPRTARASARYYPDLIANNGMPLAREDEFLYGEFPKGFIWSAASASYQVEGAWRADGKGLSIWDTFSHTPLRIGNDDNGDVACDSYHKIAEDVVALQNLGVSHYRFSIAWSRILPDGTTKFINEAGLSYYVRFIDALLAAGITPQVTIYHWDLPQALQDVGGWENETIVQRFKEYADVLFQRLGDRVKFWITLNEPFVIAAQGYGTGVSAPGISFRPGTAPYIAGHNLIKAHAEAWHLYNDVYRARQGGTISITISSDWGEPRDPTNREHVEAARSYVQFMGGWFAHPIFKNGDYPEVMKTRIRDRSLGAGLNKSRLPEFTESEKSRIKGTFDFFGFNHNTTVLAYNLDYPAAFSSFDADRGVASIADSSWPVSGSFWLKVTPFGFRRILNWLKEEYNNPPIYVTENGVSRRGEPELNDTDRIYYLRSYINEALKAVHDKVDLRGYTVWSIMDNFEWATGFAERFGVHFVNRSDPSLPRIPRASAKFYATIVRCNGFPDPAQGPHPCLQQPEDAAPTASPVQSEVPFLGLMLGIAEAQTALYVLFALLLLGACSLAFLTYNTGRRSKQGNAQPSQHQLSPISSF", "test": "Intestinal glycosidase assay in rat tissue homogenates", "assay_type": "biochemical", "settings": "concentrations up to 2500 μM", "procedure": "as §2"}, "[5]": {"test": "Drug interaction study with ketoconazole (CYP3A4 and p-glycoprotein inhibitor) in healthy subjects", "assay_type": "in vivo, human", "settings": "100 mg twice daily with ketoconazole 400 mg once daily"}, "[6]": {"settings": "mouse, in vivo, po, 150 mg/kg/day"}}, "note": "Read-outs that look alike come from different tables or passages of the source.", "data": [{"smiles": "CCCCCCCC(=O)N[C@H](CN1CCCC1)[C@H](O)c1ccc2c(c1)OCCO2", "note": "[Formula (I) Hemitartrate]", "values": [{"measurement": "IC50", "setting": "GM1 in K562 cells; K562 cells, 72 h incubation, printed range 14-34 nM, read-out: mean IC50 for inhibiting the cell surface presentation of GM1", "value": 24, "unit": "nM"}, {"measurement": "IC50", "setting": "GM1 in K562 cells; Table 8, GM1 in K562 cells, read-out: Substrate inhibition potency (in vitro IC50)", "value": "~24", "unit": "nM"}, {"measurement": "cellular toxicity", "setting": "GM1 in K562 cells; K562 cells, up to the highest dose (0.6-1000 nM), 72 h", "value": "No overt cellular toxicity"}, {"measurement": "inhibition of cytosolic debranching enzyme (α-1,6-glucosidase)", "setting": "[1]; concentrations up to 2500 μM", "value": "No detectable inhibition"}, {"measurement": "IC50", "setting": "[1]; read-out: Enzyme specificities, IC50: Glycogen debranching enzyme", "value": "> 2.5", "unit": "mM"}, {"measurement": "inhibition of α-glucosidase I and II", "setting": "α-glucosidase I and II; concentrations up to 2500 μM", "value": "No detectable inhibition"}, {"measurement": "IC50", "setting": "α-glucosidase I and II; read-out: Enzyme specificities, IC50: α-Glucosidase I and II", "value": "> 2.5", "unit": "mM"}, {"measurement": "Hygroscopicity (40° C./75% RH)", "setting": "[2]; 40° C./75% RH", "value": "None"}, {"measurement": "hygroscopicity of the solid salt", "setting": "[2]; salt screen, Example 1, listed as hemitartrate (1 salt: 2 Formula I)", "value": "non-hygroscopic"}, {"measurement": "Aqueous solubility", "setting": "Aqueous solubility", "value": ">216", "unit": "mg/mL"}, {"measurement": "Aqueous solubility", "setting": "Aqueous solubility; listed as Formula I Hemitartrate", "value": "over 300 mg/mL"}, {"measurement": "accumulation in AUC, repeated versus single dose administration", "setting": "[3]", "value": 2, "unit": "fold"}, {"measurement": "accumulation in Cmax, repeated versus single dose administration", "setting": "[3]", "value": 2, "unit": "fold"}, {"measurement": "increase in AUC with concomitant paroxetine versus multiple-dose alone", "setting": "[3]", "value": 9, "unit": "fold"}, {"measurement": "increase in Cmax with concomitant paroxetine versus multiple-dose alone", "setting": "[3]", "value": 7, "unit": "fold"}, {"measurement": "IC50", "setting": "GM3 in B16/F10 cells; Mus musculus, 72 h incubation, printed range 12-48 nM, read-out: mean IC50 for inhibiting the cell surface presentation of GM3", "value": 29, "unit": "nM"}, {"measurement": "cellular toxicity", "setting": "GM3 in B16/F10 cells; up to the highest dose (0.6-1000 nM), 72 h", "value": "No overt cellular toxicity"}, {"measurement": "gastro-intestinal issues", "setting": "D409V/null mice; effective dose of 150 mg/kg/day", "value": "no observable gastro-intestinal issues"}, {"measurement": "glucosylceramide levels versus age-matched vehicle-treated controls", "setting": "D409V/null mice; mouse, in vivo", "value": "dose-dependent reduction"}, {"measurement": "body weight versus untreated mice", "setting": "D409V/null mice; [6]", "value": "no significant deviation"}, {"measurement": "effects on well-being or feeding habits", "setting": "D409V/null mice; [6]", "value": "no notable effects"}, {"measurement": "frequency of Gaucher cells in the liver versus untreated mice", "setting": "D409V/null mice; [6]", "value": "significantly lower"}, {"measurement": "glucosylceramide levels in liver, % lower than in vehicle-treated mice", "setting": "D409V/null mice; [6]", "value": 60, "unit": "%"}, {"measurement": "glucosylceramide levels in liver, lung and spleen versus start of the study", "setting": "D409V/null mice; [6]", "value": "had not increased"}, {"measurement": "glucosylceramide levels in lung, % lower than in vehicle-treated mice", "setting": "D409V/null mice; [6]", "value": 50, "unit": "%"}, {"measurement": "glucosylceramide levels in spleen, % lower than in vehicle-treated mice", "setting": "D409V/null mice; [6]", "value": 40, "unit": "%"}, {"measurement": "glucosylceramide levels in the liver, % of those in the controls", "setting": "D409V/null mice; [6]", "value": 60, "unit": "%"}, {"measurement": "glucosylceramide levels in the lung, % of those in the controls", "setting": "D409V/null mice; [6]", "value": 40, "unit": "%"}, {"measurement": "glucosylceramide levels in the spleen, % of those in the controls", "setting": "D409V/null mice; [6]", "value": 75, "unit": "%"}, {"measurement": "solubility", "setting": "[4]; Acetone", "value": "< 5000", "unit": "µg/mL"}, {"measurement": "solubility", "setting": "[4]; Acetonitrile", "value": "< 5000", "unit": "µg/mL"}, {"measurement": "solubility", "setting": "[4]; Dichloromethane", "value": 100000, "unit": "µg/mL"}, {"measurement": "solubility", "setting": "[4]; Ethanol", "value": 29000, "unit": "µg/mL"}, {"measurement": "solubility", "setting": "[4]; Ethyl Acetate", "value": "< 5000", "unit": "µg/mL"}, {"measurement": "solubility", "setting": "[4]; Isopropyl alcohol", "value": "< 5000", "unit": "µg/mL"}, {"measurement": "solubility", "setting": "[4]; Methanol", "value": "> 200000", "unit": "µg/mL"}, {"measurement": "solubility", "setting": "[4]; Methyl t-butyl ether (TBME)", "value": "< 5000", "unit": "µg/mL"}, {"measurement": "solubility", "setting": "[4]; Tetrahydrofuran (THF)", "value": "< 5000", "unit": "µg/mL"}, {"measurement": "solubility", "setting": "[4]; Toluene", "value": "< 5000", "unit": "µg/mL"}, {"measurement": "solubility", "setting": "[4]; p-Dioxane", "value": "< 5000", "unit": "µg/mL"}, {"measurement": "inhibition of sucrase", "setting": "sucrase; concentrations up to 2500 μM", "value": "No detectable inhibition"}, {"measurement": "Ki", "setting": "sucrase; read-out: Enzyme specificities, Ki: Sucrase inhibition", "value": "> 10", "unit": "µM"}, {"measurement": "inhibition of lactase", "setting": "lactase", "value": "No detectable inhibition"}, {"measurement": "increase in exposure of the free base in plasma at steady state with ketoconazole", "setting": "[5]", "value": 4, "unit": "fold"}]}]}
